Experimental data reported in publication PMC5835316 (Chemosphere, 2017).
Read-outs that look alike come from different tables or passages of the source.

Tests used:
[1] = system: zebrafish (Danio rerio) embryo; assay: zebrafish embryo teratogenicity assay; details: for percent deformity: 15, 30 and 60 µM (≥ 15 µM); for EC50: read-out: EC50 (for teratogenicity) and LC50, equivalently calculated; for EC50/LC50: retinoids, deformity equivalent to mortality, probit analysis
[2] = format: physicochemical; details: mild heating; standing at room temperature and ambient light
[3] = system: zebrafish (Danio rerio) embryo; details: ref Hermann, 1995; Selderslaghs et al., 2009; Wang et al., 2014; cited from earlier work
[4] = system: RAR; details: ref Repa et al., 1993; cited from earlier work

Which “teratogenicity (qualitative, bioassay-guided fractionation)” value ([1]; in vivo) does the source give for “4-Hydroxymyxol 2′-glycoside [Compound 3]” here?
The value was “single bioactive component”.

Which stability [2] does the source give for 4-Ketomyxol 2′-glycoside [Compound 2] here?
The stability was “highly unstable”.

And the “observed deformities (Fig. 5)” value ([1]; 3 and 5 dpf)?
Its value is “head and eye hypoplasia and truncated tail”.

What about the “additional concentration with significant percent deformity” value ([1]; by 3 dpf) of the same molecule?
Its value is 5 µM.

And the “concentration showing pronounced developmental dysfunction” value ([1]; by 3 dpf)?
Its value is ≥ 5 µM.

What about the percent deformity ([1]; by 3 dpf) of the same molecule?
Its percent deformity is 100%.

And the EC50 ([1]; at 5 dpf, ± standard error)?
Its EC50 is 1.8 ± 0.2 µM.

What does the source list for `CC1=C(/C=C/C(C)=C/C=C/C(C)=C/C=C/C=C(C)/C=C/C=C(C)/C=C/C=C(C)/C=C/[C@H](O[C@@H]2O[C@@H](C)[C@@H](O)[C@@H](O)[C@@H]2O)C(C)(C)O)C(C)(C)C[C@H](O)C1` [Compound 1, Myxol 2′-glycoside]?
stability [2]: highly unstable; observed deformities (Fig. 5) ([1]; 5 µM, 3 and 5 dpf): head and eye hypoplasia, truncated tail and pericardial edema; concentration showing pronounced developmental dysfunction ([1]; by 3 dpf): ≥ 5 µM; percent deformity ([1]; by 3 dpf): 100%; EC50 ([1]; at 5 dpf, ± standard error): 2.4 ± 0.9 µM

Which results are given for `CC1=C(/C=C/C(C)=C/C=C/C(C)=C/C(=O)O)C(C)(C)CCC1` [RA, all-trans retinoic acid]?
LC50 and EC50 (for teratogenicity) previously reported in the zebrafish embryo [3]: nanomolar to sub-nanomolar range; teratogenicity at lowest concentration tested ([1]; 1 µM): effectively lethal; observed deformities (Fig. 5) ([1]; 1 µM, 3 dpf and 5 dpf): severely arrested development of the body axis including head and eye hypoplasia and truncated tail

For `CC1=C(/C=C/C(C)=C/C=C/C(C)=C/C=C/C=C(C)/C=C/C=C(C)/C=C/C2=C(C)C(=O)CCC2(C)C)C(C)(C)CCC1=O` [canthaxanthin], which “observed deformities (Fig. 5)” value ([1]; 30 µM, 3 dpf) is on record?
The value was “head and eye hypoplasia and truncated tail”.

What about the “percent deformity (development toxicity)” value ([1]; 2 dpf, 60 µM) of the same molecule?
The value was “approximately 89%”.

And the percent deformity ([1]; by 3 dpf)?
The percent deformity was 100%.

And the EC50 ([1]; at 5 dpf, ± standard error)?
Its EC50 is 8.7 ± 1.8 µM.

Which “observed deformities (Fig. 5)” value ([1]; 30 µM) does the source give for `CC1=C[C@H](O)CC(C)(C)[C@H]1/C=C/C(C)=C/C=C/C(C)=C/C=C/C=C(C)/C=C/C=C(C)/C=C/C1=C(C)C[C@@H](O)CC1(C)C` [lutein] here?
Its value is “head and eye hypoplasia and truncated tail”.

And the EC50 ([1]; Danio rerio)?
The EC50 was 4.7 ± 3 µM.

What about the percent deformity ([1]; by 3 dpf) of the same molecule?
The percent deformity was 100%.

For `CC1=C(/C=C/C(C)=C/C=C/C(C)=C/C=O)C(C)(C)CCC1` [retinal, all-trans retinaldehyde], which “binding affinity to RAR” value [4] is on record?
The value was “essentially no binding affinity”.

What about the EC50/LC50 [1] of the same molecule?
Its EC50/LC50 is 1.8 ± 0.7 µM.

With `CC1=C(/C=C/C(C)=C/C=C/C(C)=C/CO)C(C)(C)CCC1` [retinol] as the molecule, how does the EC50/LC50 [1] read?
The EC50/LC50 was 9.2 ± 7.6 µM.

With `CC1=C(/C=C/C(C)=C/C=C/C(C)=C/C=C/C=C(C)/C=C/C=C(C)/C=C/C2=C(C)C[C@@H](O)CC2(C)C)C(C)(C)C[C@H](O)C1` [zeaxanthin] as the molecule, how does the “observed deformities (Fig. 5)” value ([1]; 60 µM, 3 dpf) read?
The value was “little effect”.

And the embryo development ([1]; 3–5 dpf, 60 µM)?
Its embryo development is “developed normally”.

And the teratogenicity ([1]; 5-day exposure studies, 1-60 µM)?
Its teratogenicity is “no teratogenicity was observed”.

With `CC1=C(/C=C/C(C)=C/C=C/C(C)=C/C=C/C=C(C)/C=C/C=C(\C)C=O)C(C)(C)CCC1` [β-apo-8’carotenal, trans-β-apo-8’carotenal] as the molecule, how does the teratogenicity ([1]; at 3 dpf) read?
The teratogenicity was “no teratogenicity was observed”.

And the “developmental toxicity (percent deformity)” value ([1]; at 5 dpf, not significantly different from controls)?
Its value is ~ 22%.

Which results are given for `CC1=C(/C=C/C(C)=C/C=C/C(C)=C/C=C/C=C(C)/C=C/C=C(C)/C=C/C2=C(C)CCCC2(C)C)C(C)(C)CCC1` [β-carotene]?
observed deformities (Fig. 5) ([1]; 30 µM, 5 dpf): truncated tail and pericardial edema; EC50 ([1]; Danio rerio): 23.5 ± 8.9 µM
